In patent publication US10683293B2, “Optionally fused heterocyclyl-substituted derivatives of pyrimidine useful for the treatment of inflammatory, metabolic, oncologic and autoimmune diseases” (NUEVOLUTION A/S, priority 2014, dated 2020):

Key:
[1] = molecular target: T1, human RORγt (Ligand Binding Domain) (Homo sapiens, UniProt P51449); assay: Fluorescence Polarization (FP) Assay; conditions: 100 nM human RORγt LBD, 25 nM TAMRA probe, values are activity range bounds
T1 construct: purchased Crelux (Planegg, Germany) batch no PC5032-1
T1 sequence (P51449 269-508 limits assumed): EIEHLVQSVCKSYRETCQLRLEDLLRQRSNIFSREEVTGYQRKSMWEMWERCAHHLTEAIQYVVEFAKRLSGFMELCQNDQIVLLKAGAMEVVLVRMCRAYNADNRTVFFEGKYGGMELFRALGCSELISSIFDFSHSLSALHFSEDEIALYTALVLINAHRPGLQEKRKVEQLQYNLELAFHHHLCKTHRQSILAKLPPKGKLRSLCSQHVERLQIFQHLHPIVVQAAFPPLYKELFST
Outline: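 Binding to the RORγt ligand-binding domain was followed by FP. Displacement of a TAMRA-tagged RORγt ligand tracer (910 g/mol) was measured, with DMSO-only wells as negative control.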

[2] = molecular target: T2, ligand binding domain of human RORγ (Homo sapiens, UniProt P51449); assay: RORγ Reporter Assay (Gal4); assay type: cell-based; conditions: for inhibition at 1 µM: HEK-293T, read-out: Gal4 activity range @ 1 μM (% inhibition); for Gal4 activity range @ 0.1 μM (% inhibition): RORγ Reporter Assay (Gal4), HEK293t reporter cells, compound at 0.1 μM, values are activity range bounds
T2 construct: host or cells: HEK293t
T2 sequence (P51449 269-508 limits assumed): T1 sequence (P51449 269-508 limits assumed)
Outline: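 HEK293t cells expressing Gal4 DBD–human RORγ LBD hybrid with Gal4-UAS firefly luciferase reporter; compounds at final 1,000 nM and 100 nM (0.1% DMSO), triplicate, medium with 10% charcoal-stripped FBS, 24 h at 37 °C. Luminescence read; percent reduction of RORγ activity calculated versus vehicle-only wells.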

[3] = 1 μM test compound, HEK293t RORγ reporter cells, 24 hour

IC50 [1]	inhibition at 1 µM [2, 3]	Gal4 activity range @ 0.1 μM (% inhibition) [2]	Gal4 activity range @ 1 μM (% inhibition) ([2]; 1 μM test compound, HEK293t RORγ reporter cells, 24 hour, 1 µM)	Structure (SMILES)
< 0.5 µM	> 50%	>20 % inhibition		NC(=O)Cc1ccc(CNc2ncnc(N(Cc3ccccc3Cl)C3CC3)c2F)cc1 [Example A66, 2-[4-[[[6-[(2-chlorophenyl)methyl-cyclopropyl-amino]-5-fluoro-pyrimidin-4-yl]amino]methyl]phenyl]acetamide]
< 0.5 µM	> 50%	>20 % inhibition		Cc1cccc(Cl)c1CN(c1ncnc(NCc2ccc(CC(N)=O)cc2)c1F)C1CC1 [Example A67, 2-[4-[[[6-[(2-chloro-6-methyl-phenyl)methyl-cyclopropyl-amino]-5-fluoro-pyrimidin-4-yl]amino]methyl]phenyl]acetamide]
< 0.5 µM		>0 % inhibition	>50%	CCCn1nc(C)cc1CN(C)c1ncnc(NCc2ccc(CC(N)=O)cc2)c1F [Example A68, 2-[4-[[[5-fluoro-6-[methyl-[(5-methyl-2-propyl-pyrazol-3-yl)methyl]amino]pyrimidin-4-yl]amino]methyl]phenyl]acetamide]
< 0.5 µM	> 80%	>80 % inhibition		CC(c1ccc(C(F)(F)F)cc1)N(c1ncnc(NCC2CCN(S(C)(=O)=O)CC2)c1F)C1CC1 (centres unmarked) [Example A73, N4-cyclopropyl-5-fluoro-N6-[(1-methylsulfonyl-4-piperidyl)methyl]-N4-[1-[4-(trifluoromethyl)phenyl]ethyl] pyrimidine-4,6-diamine]
< 0.5 µM	> 50%	>20 % inhibition		NC(=O)Cc1ccc(CNc2ncnc(N(Cc3c(Cl)cccc3Cl)C3CC3)c2F)cc1 [Example A77, 2-[4-[[[6-[cyclopropyl-[(2,6-dichlorophenyl)methyl]amino]-5-fluoro-pyrimidin-4-yl]amino]methyl]phenyl]acetamide]
< 0.5 µM	> 80%	>20 % inhibition		CNC(=O)CC1(CNc2ncnc(N(Cc3ccc(C(F)(F)F)cc3)C3CC3)c2F)CCOCC1 [Example A80, 2-[4-[[[6-[cyclopropyl-[[4-(trifluoromethyl)phenyl]methyl]amino]-5-fluoro-pyrimidin-4-yl]amino]methyl]tetrahydropyran-4-yl]-N-methyl-acetamide]
< 0.5 µM	> 80%	>50 % inhibition		NC(=O)Cc1ccc(CNc2ncnc(N(Cc3ccc(C(F)(F)F)cn3)C3CC3)c2F)cc1 [Example A85, 2-[4-[[[6-[cyclopropyl-[[5-(trifluoromethyl)-2-pyridyl]methyl]amino]-5-fluoro-pyrimidin-4-yl]amino]methyl]phenyl]acetamide]

Second part, the molecule before the results:

Structure (SMILES)	IC50 [1]	inhibition at 1 µM [2, 3]	Gal4 activity range @ 0.1 μM (% inhibition) [2]	Gal4 activity range @ 1 μM (% inhibition) ([2]; 1 μM test compound, HEK293t RORγ reporter cells, 24 hour, 1 µM)
N#Cc1ccc(CN(c2ncnc(NCc3ccc(CC(N)=O)cc3)c2F)C2CC2)cc1 [Example A64, 2-[4-[[[6-[(4-cyanophenyl)methyl-cyclopropyl-amino]-5-fluoro-pyrimidin-4-yl]amino]methyl]phenyl]acetamide]	< 0.5 µM	> 80%	>50 % inhibition	
NC(=O)Cc1ccc(CNc2ncnc(N(Cc3c(F)cccc3Cl)C3CC3)c2F)cc1 [Example A65, 2-[4-[[[6-[(2-chloro-6-fluoro-phenyl)methyl-cyclopropyl-amino]-5-fluoro-pyrimidin-4-yl]amino]methyl]phenyl]acetamide]	< 0.5 µM	> 50%	>20 % inhibition	
CC(c1ccc(C(F)(F)F)cc1)N(c1ncnc(NCc2ccc(NS(=O)(=O)C(F)(F)F)cc2)c1F)C1CC1 (centres unmarked) [Example A74, N-[4-[[[6-[cyclopropyl-[1-[4-(trifluoromethyl)phenyl]ethyl]amino]-5-fluoro-pyrimidin-4-yl]amino]methyl]phenyl]-1,1,1-trifluoro-methanesulfonamide]	< 0.5 µM	> 50%	>0 % inhibition	
FCC1(CNc2ncnc(N(Cc3ccc(C(F)(F)F)cc3)C3CC3)c2F)CCOCC1 [Example A75, N4-cyclopropyl-5-fluoro-N6-[[4-(fluoromethyl)tetrahydropyran-4-yl]methyl]-N4-[[4-(trifluoromethyl)phenyl]methyl] pyrimidine-4,6-diamine]	< 0.5 µM	> 80%	>80 % inhibition	
C[S+]([O-])c1ccc(CNc2ncnc(N(Cc3ccc(C(F)(F)F)cc3)C3CC3)c2F)cc1 (centres unmarked) [Example A76, N4-cyclopropyl-5-fluoro-N6-[(4-methylsulfinylphenyl)methyl]-N4-[[4-(trifluoromethyl)phenyl]methyl] pyrimidine-4,6-diamine]	< 0.5 µM	> 80%	>80 % inhibition	
NC(=O)Cc1ccc(CNc2ncnc(N(Cc3ccc(C(F)(F)F)cc3)C3CC3)c2F)cn1 [Example A78, 2-[5-[[[6-[cyclopropyl-[[4-(trifluoromethyl)phenyl]methyl]amino]-5-fluoro-pyrimidin-4-yl]amino]methyl]-2-pyridyl]acetamide]	< 0.5 µM	> 80%	>50 % inhibition	
O=C(O)CC1(CNc2ncnc(N(Cc3ccc(C(F)(F)F)cc3)C3CC3)c2F)CCOCC1 [Example A79, 2-[4-[[[6-[cyclopropyl-[[4-(trifluoromethyl)phenyl]methyl]amino]-5-fluoro-pyrimidin-4-yl]amino]methyl]tetrahydropyran-4-yl]acetic acid]	< 1 µM	> 20%		
CN(c1ncnc(NCc2ccc(CC(N)=O)cc2)c1F)C1(c2ccc(C(F)(F)F)cc2)CC1 [Example A81, 2-[4-[[[5-fluoro-6-[methyl-[1-[4-(trifluoromethyl)phenyl]cyclopropyl]amino]pyrimidin-4-yl]amino]methyl]phenyl]acetamide]	< 0.5 µM	> 80%	>50 % inhibition	
CC1(c2ccc(CNc3ncnc(N(Cc4ccc(C(F)(F)F)cc4)C4CC4)c3F)cc2)NC(=O)NC1=O (centres unmarked) [Example A82, 5-[4-[[[6-[cyclopropyl-[[4-(trifluoromethyl)phenyl]methyl]amino]-5-fluoro-pyrimidin-4-yl]amino]methyl]phenyl]-5-methyl-imidazolidine-2,4-dione]	< 1 µM	> 80%	>20 % inhibition	
NC(=O)Cc1ccc(CNc2ncnc(N(Cc3ccc(C(F)(F)F)nc3)C3CC3)c2F)cc1 [Example A83, 2-[4-[[[6-[cyclopropyl-[[6-(trifluoromethyl)-3-pyridyl]methyl]amino]-5-fluoro-pyrimidin-4-yl]amino]methyl]phenyl]acetamide]	< 0.5 µM	> 80%	>50 % inhibition	
Fc1c(NCc2ccc(Cc3nnn[nH]3)cc2)ncnc1N(Cc1ccc(-n2cccn2)cc1)C1CC1 [Example A88, N4-cyclopropyl-5-fluoro-N4-[(4-pyrazol-1-ylphenyl)methyl]-N6-[[4-(1H-tetrazol-5-ylmethyl)phenyl]methyl]pyrimidine-4,6-diamine]	< 0.5 µM	> 50%	>0 % inhibition	
